# Like-named read-outs stand apart in the source and are kept apart here.
# Key:
# [1] = target: T1, DA Transporter (DAT) Sites in Mouse Brain (Mus musculus, UniProt Q61327); assay: Ex vivo [3H] WIN 35428 binding after oral dosing; design: species or system C57BL/6 mice; conditions: for Mean Specific Binding (dpm) ± S.E.M., DAT: mice sacrificed 60 minutes after treatment, striatum; for % Transporter Occupancy, DAT: 60 minutes after treatment, vs vehicle
# T1 construct: Striatum was used to determine occupancy of DA transporter sites; from tissue; host or cells: C57BL/6 mouse striatum homogenate
# Rats [2] = assay: Rat forced swim test; type: in vivo; conditions: PO, 24 hours and 30-60 minutes before the 5 minute test
# mice [3] = assay: Mouse tail suspension test; type: in vivo; conditions: PO, 30-60 minutes before the test, 5 minutes recording
# mice [4] = assay: Mouse locomotor activity; type: in vivo; conditions: PO; further: unit not given here
# Method: (§1) In order to ensure effects of the compounds on immobility time were not related to a general stimulant effect on baseline motor activity, locomotor activity was assessed using photocell monitored cages (Med-Associates Inc.). Each test chamber was equipped with infrared photocell beams to measure movement of the animals. Horizontal and vertical activity were measured
# (§2) Rats or mice were pretreated with vehicle or test compounds and placed back in home cage, following which they will be individually placed in locomotor cages and activity was monitored in 5 minute intervals for up to 60 min.
# (§3) Data were analyzed by one way analysis of variance (ANOVA) followed by post-hoc comparisons where appropriate. An effect was considered significant if p < 0.05. Data are represented as the mean and standard error to the mean (s.e.m).
# Rats [5] = assay: Rat locomotor activity; type: in vivo; conditions: PO
# Method: as §1, §2, §3
# [6] = target: Norepinephrine Transporter (NET) Sites in Mouse Brain (Mus musculus, UniProt O55192); conditions: PO, mice sacrificed 60 minutes after treatment, cortex
# dopamine transporter = target: T2, dopamine transporter (Rattus norvegicus, UniProt P23977); assay: biochemical; conditions: Rat IC50 (nM) rDAT, rat synaptosomes, dopamine transporter (DAT)
# T2 construct: synaptosomes isolated in a 0.32 M sucrose buffer from a male Wistar rat striatum; from tissue; host or cells: male Wistar rat striatum synaptosomes
# serotonin transporter = target: T3, serotonin transporter (Rattus norvegicus, UniProt P31652); assay: biochemical; conditions: Rat IC50 (nM) rSERT, rat synaptosomes, serotonin transporter (SERT)
# T3 construct: synaptosomes isolated in a 0.32M sucrose buffer from a male Wistar rat cortex; from tissue; host or cells: male Wistar rat cortex synaptosomes
# [7] = target: T4, 5-HT Transporter (SERT) Sites in Mouse Brain (Mus musculus, UniProt Q60857); assay: Ex vivo [3H] citalopram binding after oral dosing; design: species or system C57BL/6 mice; conditions: for % Transporter Occupancy, SERT: 60 minutes after treatment, vs vehicle; for Mean Specific Binding (dpm) ± S.E.M., SERT: mice sacrificed 60 minutes after treatment, cortex
# T4 construct: Whole brains were removed and cortex and striata dissected out; from tissue; host or cells: C57BL/6 mouse frontal cortex homogenate
# T4 sequence (Q60857 whole entry): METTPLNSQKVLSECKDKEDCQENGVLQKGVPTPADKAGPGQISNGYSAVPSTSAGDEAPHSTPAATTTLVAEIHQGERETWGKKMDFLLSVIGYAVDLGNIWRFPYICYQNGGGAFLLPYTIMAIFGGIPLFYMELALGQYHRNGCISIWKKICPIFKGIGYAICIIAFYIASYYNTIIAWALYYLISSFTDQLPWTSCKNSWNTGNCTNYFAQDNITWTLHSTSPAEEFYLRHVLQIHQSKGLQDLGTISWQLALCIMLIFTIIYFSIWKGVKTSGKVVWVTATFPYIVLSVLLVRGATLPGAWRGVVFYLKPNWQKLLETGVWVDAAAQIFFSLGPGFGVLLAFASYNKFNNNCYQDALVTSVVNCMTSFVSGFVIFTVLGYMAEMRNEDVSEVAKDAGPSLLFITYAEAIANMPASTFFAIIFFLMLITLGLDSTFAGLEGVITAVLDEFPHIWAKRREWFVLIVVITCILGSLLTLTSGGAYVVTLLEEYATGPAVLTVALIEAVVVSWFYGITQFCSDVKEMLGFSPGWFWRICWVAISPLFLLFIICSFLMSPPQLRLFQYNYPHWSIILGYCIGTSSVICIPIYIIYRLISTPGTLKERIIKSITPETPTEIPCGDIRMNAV
# T1 sequence (Q61327 whole entry): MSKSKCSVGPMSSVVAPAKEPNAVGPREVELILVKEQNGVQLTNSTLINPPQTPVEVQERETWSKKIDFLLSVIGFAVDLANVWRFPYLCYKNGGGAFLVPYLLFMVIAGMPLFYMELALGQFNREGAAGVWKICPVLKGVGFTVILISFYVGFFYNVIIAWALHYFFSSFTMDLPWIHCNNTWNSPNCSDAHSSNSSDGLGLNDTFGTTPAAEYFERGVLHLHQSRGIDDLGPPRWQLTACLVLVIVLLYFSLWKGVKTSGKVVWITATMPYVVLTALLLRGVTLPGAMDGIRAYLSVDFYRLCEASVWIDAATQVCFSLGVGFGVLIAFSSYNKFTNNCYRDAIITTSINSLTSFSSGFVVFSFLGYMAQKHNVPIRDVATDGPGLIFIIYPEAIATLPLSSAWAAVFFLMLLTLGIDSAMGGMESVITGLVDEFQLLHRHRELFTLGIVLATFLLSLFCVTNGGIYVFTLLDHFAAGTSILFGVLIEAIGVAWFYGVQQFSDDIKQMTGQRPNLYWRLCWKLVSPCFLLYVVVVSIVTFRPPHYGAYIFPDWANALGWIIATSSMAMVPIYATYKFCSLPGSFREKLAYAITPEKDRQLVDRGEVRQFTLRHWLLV
# Norepinephrine Transporter (NET) Sites in Mouse Brain, sequence (O55192 whole entry): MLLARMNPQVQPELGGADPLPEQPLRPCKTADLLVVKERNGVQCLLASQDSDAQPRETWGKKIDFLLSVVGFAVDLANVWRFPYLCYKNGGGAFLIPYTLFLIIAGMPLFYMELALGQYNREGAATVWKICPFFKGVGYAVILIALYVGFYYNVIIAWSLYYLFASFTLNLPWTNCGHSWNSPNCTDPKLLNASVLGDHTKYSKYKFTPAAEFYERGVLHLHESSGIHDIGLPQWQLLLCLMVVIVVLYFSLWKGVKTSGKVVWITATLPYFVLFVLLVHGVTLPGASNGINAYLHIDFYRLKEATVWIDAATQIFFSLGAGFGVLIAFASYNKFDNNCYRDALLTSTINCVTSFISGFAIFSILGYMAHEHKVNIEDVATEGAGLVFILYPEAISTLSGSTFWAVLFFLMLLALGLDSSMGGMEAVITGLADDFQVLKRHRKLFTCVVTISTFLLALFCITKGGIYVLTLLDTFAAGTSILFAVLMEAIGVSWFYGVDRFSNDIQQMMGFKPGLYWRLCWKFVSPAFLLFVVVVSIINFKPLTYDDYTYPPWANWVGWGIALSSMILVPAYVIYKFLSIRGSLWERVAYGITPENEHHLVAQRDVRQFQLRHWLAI
# T2 sequence (P23977 whole entry): as the sequence (Q61327 whole entry) above, with P21S, V57A, S194A, R600H, V619L counted along it
# T3 sequence (P31652 whole entry): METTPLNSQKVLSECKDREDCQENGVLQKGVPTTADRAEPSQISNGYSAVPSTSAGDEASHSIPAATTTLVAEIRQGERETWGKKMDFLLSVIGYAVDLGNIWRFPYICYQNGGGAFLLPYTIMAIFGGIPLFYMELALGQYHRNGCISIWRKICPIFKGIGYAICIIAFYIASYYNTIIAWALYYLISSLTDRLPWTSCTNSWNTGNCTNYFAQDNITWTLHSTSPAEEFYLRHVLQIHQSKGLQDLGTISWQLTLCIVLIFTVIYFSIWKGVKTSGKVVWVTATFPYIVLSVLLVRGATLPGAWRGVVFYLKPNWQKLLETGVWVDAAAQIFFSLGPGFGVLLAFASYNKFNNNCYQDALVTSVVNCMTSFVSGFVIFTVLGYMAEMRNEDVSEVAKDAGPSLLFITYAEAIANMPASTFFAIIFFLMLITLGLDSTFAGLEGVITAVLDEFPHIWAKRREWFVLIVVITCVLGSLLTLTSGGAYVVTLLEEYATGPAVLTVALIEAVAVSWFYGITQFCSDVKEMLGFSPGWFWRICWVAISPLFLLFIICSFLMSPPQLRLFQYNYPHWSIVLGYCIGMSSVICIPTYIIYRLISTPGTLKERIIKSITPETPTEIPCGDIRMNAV
smiles,measurement,setting,value
"CNC(C)C1(c2ccc(Cl)c(Cl)c2)CCCCC1.Cl (single isomer, unassigned) [48 E1, 1-(1-(3,4-dichlorophenyl)cyclohexyl)-N-methylethanamine hydrochloride]","Mean Specific Binding (dpm) ± S.E.M., DAT",[1]; 1 mg/kg,20656 ± 1531 dpm
same,"Mean Specific Binding (dpm) ± S.E.M., DAT",[1]; 3 mg/kg,18039 ± 1265 dpm
same,"Mean Specific Binding (dpm) ± S.E.M., DAT",[1]; 10 mg/kg,9792 ± 977 dpm
same,"Mean Specific Binding (dpm) ± S.E.M., DAT",[1]; 30 mg/kg,3173 ± 541 dpm
same,Rat Forced Swim (Means ± S.E.M.) Climbing,Rats [2]; 3 mg/kg,7.1 ± 0.6
same,Rat Forced Swim (Means ± S.E.M.) Immobility,Rats [2]; 3 mg/kg,49.6 ± 1.5
same,Rat Forced Swim (Means ± S.E.M.) Swimming,Rats [2]; 3 mg/kg,3.7 ± 1.0
same,Rat Forced Swim (Means ± S.E.M.) Climbing,Rats [2]; 10 mg/kg,17.9 ± 2.5
same,Rat Forced Swim (Means ± S.E.M.) Immobility,Rats [2]; 10 mg/kg,35.6 ± 3.5
same,Rat Forced Swim (Means ± S.E.M.) Swimming,Rats [2]; 10 mg/kg,6.5 ± 1.6
same,Rat Forced Swim (Means ± S.E.M.) Climbing,Rats [2]; 30 mg/kg,20.6 ± 2.9
same,Rat Forced Swim (Means ± S.E.M.) Immobility,Rats [2]; 30 mg/kg,26.9 ± 4.4
same,Rat Forced Swim (Means ± S.E.M.) Swimming,Rats [2]; 30 mg/kg,9.7 ± 1.7
same,Mouse Tail Suspension Mean Immobility Time ± S.E.M.,mice [3]; 3 mg/kg,189.8 ± 7.2
same,Mouse Tail Suspension Mean Immobility Time ± S.E.M.,mice [3]; 10 mg/kg,174.1 ± 5.8
same,Mouse Tail Suspension Mean Immobility Time ± S.E.M.,mice [3]; 30 mg/kg,134.5 ± 9.6
same,Mouse Locomotor Activity Total Distance Traveled ± S.E.M.,mice [4]; 3 mg/kg,622.5 ± 101.6
same,Mouse Locomotor Activity Total Distance Traveled ± S.E.M.,mice [4]; 10 mg/kg,620.0 ± 79.4
same,Mouse Locomotor Activity Total Distance Traveled ± S.E.M.,mice [4]; 30 mg/kg,468.6 ± 114.2
same,Rat Locomotor Activity Total Distance Traveled ± S.E.M.,Rats [5]; 3 mg/kg,1869.9 ± 188.4
same,Rat Locomotor Activity Total Distance Traveled ± S.E.M.,Rats [5]; 10 mg/kg,1825.3 ± 109.3
same,Rat Locomotor Activity Total Distance Traveled ± S.E.M.,Rats [5]; 30 mg/kg,1840.6 ± 56.6
same,"Mean Specific Binding (dpm) ± S.E.M., NET",[6]; 1 mg/kg,2111 ± 119 dpm
same,"Mean Specific Binding (dpm) ± S.E.M., NET",[6]; 3 mg/kg,1911 ± 144 dpm
same,"Mean Specific Binding (dpm) ± S.E.M., NET",[6]; 10 mg/kg,954 ± 115 dpm
same,"Mean Specific Binding (dpm) ± S.E.M., NET",[6]; 30 mg/kg,346 ± 55 dpm
"CNCC1(c2ccc(Cl)c(Cl)c2)CCCCC1.Cl [Compound 75, 1-(1-(3,4-dichlorophenyl)cyclohexyl)-N-methylmethanamine (hydrochloride)]",IC50,dopamine transporter,58 nM
same,Mouse Tail Suspension Mean Immobility Time ± S.E.M.,mice [3]; 3 mg/kg,187.8 ± 9.6
same,Mouse Tail Suspension Mean Immobility Time ± S.E.M.,mice [3]; 10 mg/kg,177.7 ± 5.8
same,Mouse Tail Suspension Mean Immobility Time ± S.E.M.,mice [3]; 30 mg/kg,143.5 ± 5.8
same,Mouse Locomotor Activity Total Distance Traveled ± S.E.M.,mice [4]; 3 mg/kg,653.5 ± 48.4
same,Mouse Locomotor Activity Total Distance Traveled ± S.E.M.,mice [4]; 10 mg/kg,608.8 ± 83.4
same,Mouse Locomotor Activity Total Distance Traveled ± S.E.M.,mice [4]; 30 mg/kg,655.3 ± 117.7
"CNC(C)C1(c2ccc3ccccc3c2)CCCCC1 (single isomer, unassigned) [58 E1, N-methyl-1-(1-(naphthalen-2-yl)cyclohexyl)ethanamine]",IC50,serotonin transporter,9.5 nM
same,"% Transporter Occupancy, SERT",[7]; 1 mg/kg,5%
same,"Mean Specific Binding (dpm) ± S.E.M., SERT",[7]; 1 mg/kg,3245 ± 107 dpm
same,"% Transporter Occupancy, SERT",[7]; 3 mg/kg,11%
same,"Mean Specific Binding (dpm) ± S.E.M., SERT",[7]; 3 mg/kg,3021 ± 182 dpm
same,"% Transporter Occupancy, SERT",[7]; 10 mg/kg,47%
same,"Mean Specific Binding (dpm) ± S.E.M., SERT",[7]; 10 mg/kg,1799 ± 115 dpm
same,"% Transporter Occupancy, SERT",[7]; 30 mg/kg,86%
same,"Mean Specific Binding (dpm) ± S.E.M., SERT",[7]; 30 mg/kg,469 ±43 dpm
same,"% Transporter Occupancy, DAT",[1]; 1 mg/kg,7%
same,"Mean Specific Binding (dpm) ± S.E.M., DAT",[1]; 1 mg/kg,15732 ± 1360 dpm
same,"% Transporter Occupancy, DAT",[1]; 3 mg/kg,11%
same,"Mean Specific Binding (dpm) ± S.E.M., DAT",[1]; 3 mg/kg,14938 ± 2613 dpm
same,"% Transporter Occupancy, DAT",[1]; 10 mg/kg,-2%
same,"Mean Specific Binding (dpm) ± S.E.M., DAT",[1]; 10 mg/kg,17215 ± 2151 dpm
same,"% Transporter Occupancy, DAT",[1]; 30 mg/kg,24%
same,"Mean Specific Binding (dpm) ± S.E.M., DAT",[1]; 30 mg/kg,12876 ± 2152 dpm

# From patent EP1976513B1 (priority 2006, dated 2007)
